From ChEMBL document CHEMBL1201862, “PubChem BioAssay data set” (2004)
Calls of active or inactive are those of the source.

Experiments:
[1] = target: T1, Caspase-3 (Homo sapiens, UniProt P42574); format: functional;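 note: Dose-response selectivity test against caspase-3 for candidate inhibitors of sentrin-specific proteases (SENPs)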
T1 sequence (P42574 whole entry): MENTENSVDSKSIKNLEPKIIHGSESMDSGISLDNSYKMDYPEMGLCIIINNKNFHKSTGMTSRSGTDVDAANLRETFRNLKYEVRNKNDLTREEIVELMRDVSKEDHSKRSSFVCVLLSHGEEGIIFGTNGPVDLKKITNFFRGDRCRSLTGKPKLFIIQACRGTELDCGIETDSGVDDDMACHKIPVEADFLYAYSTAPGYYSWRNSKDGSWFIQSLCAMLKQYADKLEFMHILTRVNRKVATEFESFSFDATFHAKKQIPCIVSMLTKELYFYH

[2] = target: T2, Sentrin-specific protease 7 (Homo sapiens, UniProt Q9BQF6); format: functional;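 note: Luminescence-based dose-response confirmation of ultra-high-throughput screening hits, measuring inhibition of SENP7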
T2 sequence (Q9BQF6 whole entry): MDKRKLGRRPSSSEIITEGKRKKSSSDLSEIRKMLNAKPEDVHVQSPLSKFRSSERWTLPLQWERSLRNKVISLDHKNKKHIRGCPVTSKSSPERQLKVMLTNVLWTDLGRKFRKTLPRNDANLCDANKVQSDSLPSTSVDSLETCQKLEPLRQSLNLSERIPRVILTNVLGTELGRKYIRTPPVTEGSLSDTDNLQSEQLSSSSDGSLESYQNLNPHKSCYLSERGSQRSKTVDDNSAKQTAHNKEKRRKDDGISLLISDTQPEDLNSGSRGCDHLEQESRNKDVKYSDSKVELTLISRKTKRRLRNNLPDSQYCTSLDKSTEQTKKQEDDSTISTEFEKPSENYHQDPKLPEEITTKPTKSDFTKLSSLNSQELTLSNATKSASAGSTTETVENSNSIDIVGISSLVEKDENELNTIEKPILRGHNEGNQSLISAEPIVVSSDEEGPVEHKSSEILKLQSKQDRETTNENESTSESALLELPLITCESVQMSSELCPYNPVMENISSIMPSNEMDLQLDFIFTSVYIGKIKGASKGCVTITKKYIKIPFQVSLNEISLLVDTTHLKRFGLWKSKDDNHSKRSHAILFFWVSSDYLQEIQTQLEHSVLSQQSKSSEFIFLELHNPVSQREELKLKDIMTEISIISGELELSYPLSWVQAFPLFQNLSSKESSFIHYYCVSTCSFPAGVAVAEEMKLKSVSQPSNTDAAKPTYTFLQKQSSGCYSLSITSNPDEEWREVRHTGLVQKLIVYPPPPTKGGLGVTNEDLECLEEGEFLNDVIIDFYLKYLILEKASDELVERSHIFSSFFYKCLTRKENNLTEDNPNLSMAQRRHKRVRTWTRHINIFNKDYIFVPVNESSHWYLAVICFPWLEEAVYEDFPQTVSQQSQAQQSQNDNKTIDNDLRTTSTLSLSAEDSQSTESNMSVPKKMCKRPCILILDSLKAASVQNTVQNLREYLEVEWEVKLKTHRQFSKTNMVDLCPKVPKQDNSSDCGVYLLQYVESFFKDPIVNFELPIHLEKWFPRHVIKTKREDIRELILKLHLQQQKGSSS

[3] = target: T3, Sentrin-specific protease 6 (Homo sapiens, UniProt Q9GZR1); format: functional;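 note: Luminescence-based dose-response confirmatory assay of SENP6 inhibition, following up an ultra-high-throughput screen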
T3 sequence (Q9GZR1 whole entry): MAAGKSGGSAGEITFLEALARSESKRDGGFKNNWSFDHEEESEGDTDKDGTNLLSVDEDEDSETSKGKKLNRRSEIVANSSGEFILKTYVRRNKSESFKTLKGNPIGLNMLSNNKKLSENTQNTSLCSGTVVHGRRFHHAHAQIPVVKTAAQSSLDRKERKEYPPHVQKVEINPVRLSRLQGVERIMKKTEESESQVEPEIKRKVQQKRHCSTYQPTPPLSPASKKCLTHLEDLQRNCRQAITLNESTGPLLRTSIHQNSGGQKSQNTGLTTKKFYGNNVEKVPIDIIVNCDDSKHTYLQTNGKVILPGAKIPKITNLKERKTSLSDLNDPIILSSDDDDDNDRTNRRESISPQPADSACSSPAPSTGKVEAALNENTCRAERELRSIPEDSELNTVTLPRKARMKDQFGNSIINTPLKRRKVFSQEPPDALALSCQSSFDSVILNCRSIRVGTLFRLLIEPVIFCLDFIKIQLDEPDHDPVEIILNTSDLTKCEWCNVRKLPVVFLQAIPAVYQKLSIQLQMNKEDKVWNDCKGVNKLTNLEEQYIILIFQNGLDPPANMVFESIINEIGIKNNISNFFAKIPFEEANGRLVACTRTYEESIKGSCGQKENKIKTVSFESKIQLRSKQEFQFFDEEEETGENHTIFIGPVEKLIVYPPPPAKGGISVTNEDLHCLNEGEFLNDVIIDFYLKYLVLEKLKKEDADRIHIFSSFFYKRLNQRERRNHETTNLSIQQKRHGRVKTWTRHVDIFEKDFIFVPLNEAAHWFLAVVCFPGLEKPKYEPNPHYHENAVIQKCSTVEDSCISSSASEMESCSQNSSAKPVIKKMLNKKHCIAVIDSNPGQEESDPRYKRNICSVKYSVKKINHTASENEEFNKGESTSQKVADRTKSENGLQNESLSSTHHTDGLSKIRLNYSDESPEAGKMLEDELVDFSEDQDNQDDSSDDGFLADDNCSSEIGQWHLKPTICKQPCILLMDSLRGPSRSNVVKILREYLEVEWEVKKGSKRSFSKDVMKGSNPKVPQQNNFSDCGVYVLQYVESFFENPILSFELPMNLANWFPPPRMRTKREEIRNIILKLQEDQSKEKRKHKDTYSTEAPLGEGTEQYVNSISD

[4] = target: T4, Sentrin-specific protease 8 (Homo sapiens, UniProt Q96LD8); format: functional;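 note: luminescence read-out of SENP8 inhibition, dose-response confirmation following an ultra-high-throughput screen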
T4 sequence (Q96LD8 whole entry): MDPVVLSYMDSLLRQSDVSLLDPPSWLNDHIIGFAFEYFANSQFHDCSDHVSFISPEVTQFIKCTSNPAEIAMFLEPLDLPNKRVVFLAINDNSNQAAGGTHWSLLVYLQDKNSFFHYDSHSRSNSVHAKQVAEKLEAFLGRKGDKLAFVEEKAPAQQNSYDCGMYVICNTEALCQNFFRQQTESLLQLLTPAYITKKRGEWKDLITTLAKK

[5] = target: T5, Fatty acid synthase (Homo sapiens, UniProt P49327); experiment: FAS thioesterase domain inhibitors, dose response, biochemical, endpoint fluorescence intensity, uHTS hits (AID 624327); format: functional;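 note: fluorescence from hydrolysis of an O-methyl fluorescein acyl ester substrate by the enzyme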
[6] = target: T5, Fatty acid synthase; experiment: FAS thioesterase domain inhibitors, dose response, biochemical, kinetic fluorescence intensity (AID 624326); format: functional;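 note: rate of fluorescence rise from hydrolysis of a fluorogenic O-methyl fluorescein ester substrate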
[7] = target: SWI/SNF-related matrix-associated actin-dependent regulator of chromatin subfamily A member 2 (Homo sapiens, UniProt P51531); experiment: Luminescence-based cell-based high throughput dose response assay to identify activators of the function of SWI/SNF related, matrix associated, actin dependent regulator of chromatin, subfamily a, member 2 (SMARCA2, BRM).; format: functional
[8] = Counterscreen for activators of the function of SWI/SNF related, matrix associated, actin dependent regulator of chromatin, subfamily a, member 2 (SMARCA2, BRM): Luminescence-based cell-based high throughput dose response assay to identify non-selective compounds using the VP16 reporter assay.; format: functional
[9] = target: Beta-lactamase (Salmonella choleraesuis (strain SC-B67), UniProt Q5J463); experiment: Epi-absorbance-based counterscreen for selective VIM-2 inhibitors: dose response biochemical high throughput screening assay to identify inhibitors of TEM-1 serine-beta-lactamase.
[10] = target: T6, Beta-lactamase (Pseudomonas aeruginosa, UniProt Q79MP6); experiment: IMP-1 metallo-beta-lactamase inhibitors, dose response, selectivity assay for VIM-2 inhibitor project, biochemical, epi-absorbance (AID 1920)
[11] = target: T6, Beta-lactamase; experiment: […] counterscreen for selective VIM-2 inhibitors: dose response biochemical high throughput screening assay to identify inhibitors of IMP-1 metallo-beta-lactamase.
[12] = inhibitors of firefly luciferase expression or activity, dose response, H4 neuroglioma cells, luminescence (AID 1990); format: functional, cell-based
[13] = Luminescence Cell-Based Dose Response HTS to Identify Inhibitors of 5'UTR Stem-Loop Driven Prion Protein mRNA Translation in H4 Neuroglioblastoma Cells. [Related pubchem assays: 1827 (Project Summary), 1813 (Primary HTS)]; format: functional
[14] = inhibitors of SNCA 5'UTR-driven reporter translation, confirmation, H4 neuroglioma cells, luminescence (AID 1988); format: functional, cell-based
[15] = target: Paired box protein Pax-8 (Homo sapiens, UniProt Q06710); experiment: inhibitors of PAX8-driven TPO luciferase reporter, dose response, RMG-I cells, cherry-pick (AID 687027); format: functional, cell-based;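 note: luciferase reporter driven by Pax8 target thyroperoxidase promoter measured by SteadyGlo luminescence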
[16] = target: T7, Endoribonuclease toxin MazF (Escherichia coli K-12, UniProt P0AE70); experiment: MazF toxin RNase activators, dose response, biochemical, fluorescence, single-stranded RNA substrate, uHTS hits (AID 588481); format: functional
T7 sequence (P0AE70 whole entry): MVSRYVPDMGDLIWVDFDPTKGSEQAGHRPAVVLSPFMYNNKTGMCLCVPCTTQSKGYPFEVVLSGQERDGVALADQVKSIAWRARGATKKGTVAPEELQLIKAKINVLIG

[17] = target: T7, Endoribonuclease toxin MazF; experiment: fluorescent RNA oligo signal without MazF, dose response, counter-screen for MazEF activator project, biochemical, fluorescence, single-stranded RNase substrate (AID 588502); format: functional
[18] = system: P388/ADR; experiment: cells; format: functional; settings: Mus musculus
[19] = system: SN12K1; experiment: cells; format: functional; settings: Homo sapiens
[20] = system: P388; experiment: cells; format: functional; settings: Mus musculus

T5 sequence (P49327 whole entry, the tested form may be a part): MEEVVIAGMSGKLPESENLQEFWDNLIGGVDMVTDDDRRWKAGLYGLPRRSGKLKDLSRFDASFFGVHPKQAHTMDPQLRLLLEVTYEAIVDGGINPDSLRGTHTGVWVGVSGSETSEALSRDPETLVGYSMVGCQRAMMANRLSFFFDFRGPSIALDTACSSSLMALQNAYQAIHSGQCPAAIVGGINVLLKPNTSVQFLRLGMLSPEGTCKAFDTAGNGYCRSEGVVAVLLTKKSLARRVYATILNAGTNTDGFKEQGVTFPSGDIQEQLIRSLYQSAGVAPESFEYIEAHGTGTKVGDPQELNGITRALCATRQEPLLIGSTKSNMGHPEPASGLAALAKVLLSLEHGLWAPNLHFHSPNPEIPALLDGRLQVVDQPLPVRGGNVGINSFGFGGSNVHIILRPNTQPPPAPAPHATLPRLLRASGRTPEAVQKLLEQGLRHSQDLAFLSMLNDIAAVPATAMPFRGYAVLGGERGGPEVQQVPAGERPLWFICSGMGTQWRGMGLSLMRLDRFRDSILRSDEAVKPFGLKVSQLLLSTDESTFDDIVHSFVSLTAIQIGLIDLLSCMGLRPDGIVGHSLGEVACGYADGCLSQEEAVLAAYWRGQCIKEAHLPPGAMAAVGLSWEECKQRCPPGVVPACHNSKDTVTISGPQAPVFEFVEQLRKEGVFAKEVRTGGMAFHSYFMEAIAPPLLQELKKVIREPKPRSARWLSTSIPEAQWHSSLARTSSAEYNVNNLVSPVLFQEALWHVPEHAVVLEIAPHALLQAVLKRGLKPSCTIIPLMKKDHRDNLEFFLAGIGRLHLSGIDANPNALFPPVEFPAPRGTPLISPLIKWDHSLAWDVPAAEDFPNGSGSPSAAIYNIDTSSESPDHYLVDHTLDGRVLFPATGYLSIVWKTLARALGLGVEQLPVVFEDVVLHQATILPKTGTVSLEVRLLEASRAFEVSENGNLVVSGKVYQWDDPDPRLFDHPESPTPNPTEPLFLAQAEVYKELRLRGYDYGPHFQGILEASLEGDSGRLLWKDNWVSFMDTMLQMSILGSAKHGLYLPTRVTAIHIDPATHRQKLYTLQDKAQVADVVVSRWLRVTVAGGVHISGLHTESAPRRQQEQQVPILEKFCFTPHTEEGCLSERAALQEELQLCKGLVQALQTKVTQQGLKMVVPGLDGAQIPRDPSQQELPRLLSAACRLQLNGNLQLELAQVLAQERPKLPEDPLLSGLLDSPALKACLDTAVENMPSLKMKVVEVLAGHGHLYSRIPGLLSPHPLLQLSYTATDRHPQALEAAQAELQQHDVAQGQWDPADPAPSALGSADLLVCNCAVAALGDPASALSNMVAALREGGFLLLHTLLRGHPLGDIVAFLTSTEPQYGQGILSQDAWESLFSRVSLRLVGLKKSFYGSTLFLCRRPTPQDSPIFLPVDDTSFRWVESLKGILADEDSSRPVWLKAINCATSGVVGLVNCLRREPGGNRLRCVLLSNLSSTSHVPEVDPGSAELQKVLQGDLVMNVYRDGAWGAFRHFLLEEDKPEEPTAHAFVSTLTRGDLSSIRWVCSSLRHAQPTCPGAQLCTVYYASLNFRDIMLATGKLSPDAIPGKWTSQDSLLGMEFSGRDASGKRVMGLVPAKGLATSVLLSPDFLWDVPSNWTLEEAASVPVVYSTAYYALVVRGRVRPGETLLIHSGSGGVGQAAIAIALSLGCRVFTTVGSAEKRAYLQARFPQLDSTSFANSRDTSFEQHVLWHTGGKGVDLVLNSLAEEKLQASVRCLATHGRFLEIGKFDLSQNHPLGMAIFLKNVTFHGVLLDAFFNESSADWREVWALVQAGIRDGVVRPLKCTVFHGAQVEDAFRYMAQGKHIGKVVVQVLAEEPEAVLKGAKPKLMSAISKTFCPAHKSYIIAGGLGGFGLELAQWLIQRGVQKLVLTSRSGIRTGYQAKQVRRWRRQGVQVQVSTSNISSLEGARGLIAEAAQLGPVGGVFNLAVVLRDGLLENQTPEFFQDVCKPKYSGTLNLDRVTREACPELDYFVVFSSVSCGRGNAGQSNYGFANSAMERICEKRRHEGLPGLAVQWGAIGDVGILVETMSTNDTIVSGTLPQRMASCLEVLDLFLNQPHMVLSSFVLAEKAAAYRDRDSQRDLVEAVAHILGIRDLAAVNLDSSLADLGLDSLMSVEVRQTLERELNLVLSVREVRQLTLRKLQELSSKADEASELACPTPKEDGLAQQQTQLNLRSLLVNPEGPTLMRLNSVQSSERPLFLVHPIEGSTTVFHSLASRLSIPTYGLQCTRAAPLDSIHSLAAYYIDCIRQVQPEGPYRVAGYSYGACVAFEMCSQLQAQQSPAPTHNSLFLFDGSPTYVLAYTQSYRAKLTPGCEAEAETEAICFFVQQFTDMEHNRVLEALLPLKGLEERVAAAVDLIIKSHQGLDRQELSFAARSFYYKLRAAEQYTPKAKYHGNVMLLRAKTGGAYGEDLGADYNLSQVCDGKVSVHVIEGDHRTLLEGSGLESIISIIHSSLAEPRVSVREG
T6 sequence (Q79MP6 whole entry): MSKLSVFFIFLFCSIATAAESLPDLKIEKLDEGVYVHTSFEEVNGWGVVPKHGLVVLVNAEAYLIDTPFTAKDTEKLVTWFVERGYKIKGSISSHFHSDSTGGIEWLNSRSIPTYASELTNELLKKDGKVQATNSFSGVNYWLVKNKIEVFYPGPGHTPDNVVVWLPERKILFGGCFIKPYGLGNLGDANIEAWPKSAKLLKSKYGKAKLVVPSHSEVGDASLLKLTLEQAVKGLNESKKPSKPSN
SWI/SNF-related matrix-associated actin-dependent regulator of chromatin subfamily A member 2, sequence (P51531 whole entry): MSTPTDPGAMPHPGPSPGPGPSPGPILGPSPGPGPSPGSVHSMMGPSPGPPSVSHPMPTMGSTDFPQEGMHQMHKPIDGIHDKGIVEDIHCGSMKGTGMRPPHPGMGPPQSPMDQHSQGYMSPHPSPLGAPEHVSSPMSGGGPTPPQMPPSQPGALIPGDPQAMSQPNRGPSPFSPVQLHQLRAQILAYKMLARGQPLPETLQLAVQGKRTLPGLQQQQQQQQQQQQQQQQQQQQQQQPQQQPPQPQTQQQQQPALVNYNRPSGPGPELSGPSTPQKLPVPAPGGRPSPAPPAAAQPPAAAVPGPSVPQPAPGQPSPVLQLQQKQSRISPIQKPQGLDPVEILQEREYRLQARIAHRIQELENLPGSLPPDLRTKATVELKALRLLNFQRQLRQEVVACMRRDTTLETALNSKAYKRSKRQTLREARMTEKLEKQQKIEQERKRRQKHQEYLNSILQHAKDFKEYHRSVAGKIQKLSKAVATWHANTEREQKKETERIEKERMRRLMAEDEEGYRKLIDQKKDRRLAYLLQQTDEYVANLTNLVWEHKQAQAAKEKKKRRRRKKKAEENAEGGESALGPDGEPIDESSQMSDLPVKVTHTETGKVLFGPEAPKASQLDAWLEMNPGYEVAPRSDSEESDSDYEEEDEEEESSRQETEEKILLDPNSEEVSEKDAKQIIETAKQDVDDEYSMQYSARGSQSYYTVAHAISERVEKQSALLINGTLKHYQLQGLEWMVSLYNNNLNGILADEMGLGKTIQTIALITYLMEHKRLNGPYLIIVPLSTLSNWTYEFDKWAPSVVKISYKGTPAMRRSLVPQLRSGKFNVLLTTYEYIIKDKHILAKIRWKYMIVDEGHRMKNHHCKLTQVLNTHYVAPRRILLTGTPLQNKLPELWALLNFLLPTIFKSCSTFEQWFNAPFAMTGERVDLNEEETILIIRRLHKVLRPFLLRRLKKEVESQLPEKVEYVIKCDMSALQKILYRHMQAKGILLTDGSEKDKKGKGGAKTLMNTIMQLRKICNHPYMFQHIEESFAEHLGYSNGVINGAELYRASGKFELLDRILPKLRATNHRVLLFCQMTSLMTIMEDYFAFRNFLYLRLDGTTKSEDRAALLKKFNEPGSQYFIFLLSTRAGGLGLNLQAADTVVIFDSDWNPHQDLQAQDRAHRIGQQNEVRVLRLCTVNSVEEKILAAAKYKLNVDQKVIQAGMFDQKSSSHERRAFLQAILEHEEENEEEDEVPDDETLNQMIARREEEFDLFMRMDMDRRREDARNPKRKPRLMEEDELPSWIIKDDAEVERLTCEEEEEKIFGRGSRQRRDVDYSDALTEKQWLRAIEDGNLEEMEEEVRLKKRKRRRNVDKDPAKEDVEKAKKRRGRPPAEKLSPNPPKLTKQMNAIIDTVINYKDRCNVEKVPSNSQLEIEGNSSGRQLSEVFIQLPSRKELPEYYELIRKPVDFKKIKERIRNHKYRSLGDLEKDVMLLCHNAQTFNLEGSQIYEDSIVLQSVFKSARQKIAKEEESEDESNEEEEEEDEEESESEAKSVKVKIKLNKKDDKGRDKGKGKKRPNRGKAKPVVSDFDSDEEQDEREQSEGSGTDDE
Beta-lactamase (Salmonella choleraesuis (strain SC-B67), UniProt Q5J463), sequence (Q5J463 whole entry): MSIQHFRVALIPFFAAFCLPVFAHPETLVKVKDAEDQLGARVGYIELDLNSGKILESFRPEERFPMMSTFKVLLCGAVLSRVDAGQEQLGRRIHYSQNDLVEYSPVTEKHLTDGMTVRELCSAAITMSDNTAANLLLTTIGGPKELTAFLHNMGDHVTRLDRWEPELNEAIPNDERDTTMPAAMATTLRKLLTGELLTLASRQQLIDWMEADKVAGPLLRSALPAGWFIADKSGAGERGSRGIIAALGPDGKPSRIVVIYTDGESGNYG
Paired box protein Pax-8, sequence (Q06710 whole entry): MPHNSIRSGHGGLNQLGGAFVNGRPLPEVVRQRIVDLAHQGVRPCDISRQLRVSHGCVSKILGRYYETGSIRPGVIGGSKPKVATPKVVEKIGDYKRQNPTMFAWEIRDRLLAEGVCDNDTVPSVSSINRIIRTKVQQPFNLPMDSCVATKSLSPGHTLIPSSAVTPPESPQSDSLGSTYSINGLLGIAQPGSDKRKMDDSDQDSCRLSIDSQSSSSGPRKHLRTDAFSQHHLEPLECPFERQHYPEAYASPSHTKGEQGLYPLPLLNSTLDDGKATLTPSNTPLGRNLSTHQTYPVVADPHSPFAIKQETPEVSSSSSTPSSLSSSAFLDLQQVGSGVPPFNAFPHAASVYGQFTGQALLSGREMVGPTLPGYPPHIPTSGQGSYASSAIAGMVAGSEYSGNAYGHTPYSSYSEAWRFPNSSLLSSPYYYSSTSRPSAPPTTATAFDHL

## COC(=O)c1ccc(NC(=O)Nc2ccc(F)c(Cl)c2)cc1
[1]
  IC50: 48 µM (active)
[2]
  IC50: 6.56 µM (active)
[3]
  IC50: > 100 µM (inactive)
[4]
  IC50: > 100 µM (inactive)

## CC(C)C(=O)Nc1ccc2nn(-c3ccc(F)cc3)nc2c1
[1]
  IC50: 8.48 µM (active)
[2]
  IC50: 3.03 µM (active)
[3]
  IC50: 6.19 µM (active)
[4]
  IC50: 41.3 µM (active)

## CCCCC(CC)C(=O)Nc1cc([N+](=O)[O-])ccc1F (stereo not given)
[5]
  IC50: 3.19 µM (active)
[6]
  IC50: 4.44 µM (active)

## COCCN1CCN(c2c(C)c(C)nc3cc(-c4cccc(OC)c4)nn23)CC1
[7]
  EC50: > 91.1 µM (inactive)
[8]
  EC50: > 91.1 µM (inactive)

## CCCn1c(S)nnc1C(C)C
[9]
  IC50: > 59.6 µM (inactive)
[10]
  IC50: > 59.6 µM (inactive)
[11]
  IC50: > 59.6 µM (inactive)

## CN(C)CCN(C(=O)/C=C/c1cccs1)c1nc2c(F)cc(F)cc2s1
[12]
  EC50: 12.5 µM (active)
[13]
  EC50: 10.4 µM (active)
[14]
  EC50: 8.47 µM (active)
[7]
  EC50: > 91.1 µM (inactive)
[8]
  EC50: > 91.1 µM (inactive)
[15]
  AC50: 8.86 µM (active)

## O=C(CSc1nnc2scc(-c3ccccc3)n12)c1ccc2c(c1)OCCO2
[16]
  EC50: > 99 µM (inactive)
[17]
  EC50: > 99 µM (inactive)

## CCn1c(O)c(N=Nc2ccc3ccccc3n2)c2ccccc21
[1]
  IC50: 2.1 µM (active)
[2]
  IC50: 0.857 µM (active)
[3]
  IC50: 1.11 µM (active)
[4]
  IC50: 1.83 µM (active)

## COc1ccccc1C(=O)Nc1nnc(SCC(=O)NCc2ccco2)s1
[9]
  IC50: > 59.6 µM (inactive)
[10]
  IC50: > 59.6 µM (inactive)
[11]
  IC50: > 59.6 µM (inactive)

## NC(=O)c1ccccc1NC(=O)/C=C/c1c(Cl)cccc1Cl
[1]
  IC50: 21.5 µM (active)
[2]
  IC50: 6.11 µM (active)
[3]
  IC50: > 100 µM (inactive)
[4]
  IC50: > 100 µM (inactive)

## CCCn1c(O)c(N=Nc2ccc3ccccc3n2)c2ccccc21
[16]
  EC50: > 99 µM (inactive)
[17]
  EC50: > 99 µM (inactive)

## COc1ccc([N+](=O)[O-])cc1NC(=O)C(C)OC(=O)CC1CCCC1 (stereo not given)
[5]
  IC50: 6.83 µM (active)
[6]
  IC50: 5.28 µM (active)

## OC(C1CO1)C(O)C1CO1 (stereo not given)
[18]
  GI50: 9.79 µM (inactive)
[19]
  GI50: 54.7 µM (inactive)
[20]
  GI50: 13.5 µM (inactive)

## CC(C)(C)C(=O)OCc1ccc(C2=CC(=O)CC(C)(C)C2=O)cc1
[5]
  IC50: 1.28 µM (active)
[6]
  IC50: 3.9 µM (active)

## COC(=O)N/N=C(\C)c1ccccc1Br
[7]
  EC50: > 91.1 µM (inactive)
[8]
  EC50: > 91.1 µM (inactive)

## O=C1NC(O)CCN1C1OC(CO)C(O)C1O (stereo not given)
[18]
  GI50: > 250 µM (inactive)
[19]
  GI50: > 250 µM (inactive)
[20]
  GI50: > 250 µM (inactive)

## Cc1cc(C(=O)N/N=C/C(Cl)=C/c2ccccc2)c(C)o1
[1]
  IC50: 18.2 µM (active)
[2]
  IC50: 7.77 µM (active)
[3]
  IC50: 22.6 µM (active)
[4]
  IC50: > 100 µM (inactive)

## CC(C)=CCc1cc(-c2oc3cc(O)cc(O)c3c(=O)c2O)ccc1O [ISOLICOFLAVONOL]
[16]
  EC50: 14 µM (active)
[17]
  EC50: > 99 µM (inactive)

## CC/C=C\C/C=C\C/C=C\CCCCCCCC(=O)OC [METHYL LINOLENATE]
[18]
  GI50: 28.2 µM (inactive)
[19]
  GI50: > 100 µM (inactive)
[20]
  GI50: > 10 µM (inactive)

## O=C1N[C@H]2[C@H](O)[C@H](O)[C@@H](O)[C@H](O)[C@@H]2c2cc3c(c(O)c21)OCO3 [PANCRATISTATIN]
[18]
  GI50: 0.0406 µM (active)
[19]
  GI50: 0.047 µM (active)
[20]
  GI50: 0.0366 µM (active)
